This is an account of results in patent publication US20050074820A1, “Method for the immunohistological detection of fibrogenesis in histological tissue sections using antiboides against C-terminal procollagen alpha1 (III) propeptide” (priority 2001, published 2005).

Assay [1] relates to hepatitis B virus (HBV) DNA. The assay can be described thus: HBV DNA concentration before and after treatment. The class given is in vivo.
In assay [2] the test system is hepatitis B e-antigen (HBeAg). Kind of assay: Loss of hepatitis B e-antigen under treatment. Type of assay: in vivo, hepatitis B virus. Particulars: lamivudine 100 mg daily, 52 weeks; versus 9% placebo, p<0.05. From the text: The liver tissue samples were examined by a pathologist. […] A reduction of the HAI by 2 points HAI is considered a significant change in hepatic histology after the termination of the treatment.
The baselines and the quantitative immunostains against α-SMA und PIIICP were compared between lamivudine und placebo patients using Student's t-tests. In addition, the results of the immunostains were correlated with the loss of the hepatitis B e-antigen (HBeAg) using the Mantel-Haenszel chi square test.

The subject of a further assay is α-SMA. Kind of assay: Quantitative immunostain of α-SMA in liver tissue sections (image analysis). The settings on record: for α-SMA expression (stained area over total area): all lamivudine patients; for α-SMA expression: lamivudine-treated, Pre. The class given is in vivo, human. Here is the method: (§1) Paraffin-embedded tissue sections were stained for α-smooth muscle actin (α-SMA) or PIIICP (FIG. 2). The staining procedure was carried out using the DAKO Envision System (DAKO; Carpinteria, Calif., USA). After inhibiting endogenous peroxidase with Peroxidase Blocking Agent (DAKO) the tissue sections were incubated for 10 minutes at room temperature with a murine monoclonal anti-α-SMA antibody (diluted 1:200 in PBS+1% BSA) or with a murine monoclonal anti-PIIICP antibody (antibody concentration 5 mg/ml; diluted 1:100 in PBS+1% BSA). After the incubation, the sections were washed twice with PBS buffer for 3 minutes, respectively. The tissue sections were then incubated with labelled polymer (peroxidase-labelled polymer conjugated with anti-rabbit and anti-mouse immunoglobulins from the goat) at room temperature for 10 minutes. After washing twice with PBS buffer the tissue sections were incubated with 3,3-diaminobenzidine (DAB) substrate for 8 minutes, rinsed with water and exposed to DAB Enhancer (Innovex Bioscience; Richmond, Calif., USA) for 5 minutes and subsequently rinsed with water again. Counterstaining was performed with hematoxyline. As a negative control all samples were incubated with 1% BSA solution instead of antibody.
(§2) The stained parenchymal areas on the tissue sections, that are formed by α-SMA or PIIICP-positive hepatic stellate cells, were quantified with the Bioquant TCW 98 image analysis program (Bioquant Image Analysis; www.bioquant.com) with the connected Computer as well as with an Olympus microscope. The results were stated as the percent ratio between the stained area and the total area.
(§3) The immunohistochemical quantification was futhermore correlated with changes of individual components of the histological activity index (HAI) or with entire HAI. For the individual patients in both treatment groups—lamivudine or placebo, respectively—the change of α-SMA- or PIIICP-stained areas was calculated according to: ΔSMA (or ΔPIIICP)=percent area before treatment minus percent […]. The mean change was compared between the lamivudine-treated and the placebo-treated groups using Student's t-Test.

For assay [3], the system named is patients with chronic hepatitis B. Kind of assay: Serum ALT before and after 52 weeks of treatment, phase III trials. The class given is in vivo, human.
The test system of the next assay is PIIICP. The assay can be described thus: Quantitative immunostain of PIIICP in liver tissue sections (image analysis). Particulars: for PIIICP expression (stained area over total area): all lamivudine patients; for PIIICP expression: lamivudine-treated, Pre. Type of assay: in vivo, human. The protocol:
as §1, §2, §3

[4] abbreviates: lamivudine group n = 47, Post (100 mg daily, 52 weeks).

Consider `Nc1ccn([C@@H]2CS[C@H](CO)O2)c(=O)n1` [Lamivudine, lamivudine], for which the “HBV DNA” value was 33 ± 120 pg/mL in assay [1] (setting [4]) and 180 ± 211^ψ pg/ml in assay [1] (lamivudine group n = 47, Pre (before treatment)). Also, in assay [2], the “patients who lost the HbeAg” value is listed as 36.2%. Also, the entries for the “α-SMA expression (stained area over total area)” value in the assay with α-SMA (after treatment) and in the assay with α-SMA (before treatment) were 0.58±0.11% and 1.06±0.23%, respectively. In addition, the figures for the α-SMA expression in the assay on α-SMA (HbeAg loss (n = 17)) and in the assay with α-SMA (No loss of HbeAg (n = 30)) were 1.46 and 0.83, respectively. Further, the “ALT (mean ± SD)” value in assay [3] (chronic hepatitis B patients, lamivudine group n = 47, Pre (before treatment)) is on record as 154 ± 100 IU/l; in assay [3] (setting [4]), 60.7 ± 55 IU/l. Further, the “PIIICP expression (stained area over total area)” value was determined as 0.02% in the assay on PIIICP (after lamivudine) and 0.06% in the assay on PIIICP (before lamivudine). Also, the PIIICP expression is 0.10 in the assay on PIIICP (HbeAg loss (n = 17)) and 0.03 in the assay on PIIICP (No loss of HbeAg (n = 30)).
